{
  "source": "patent US20130156753A1",
  "about": "(UNIVERSITY OF ROCHESTER, priority 2010, published 2013)",
  "key": {"[1]": {"test_system": "HDAC5 nuclear export", "assay": "PMA-induced GFP-HDAC5 nuclear export in Cos7 cells (fluorescence microscopy)", "type": "cell-based", "procedure": "A, B, Cos7 cells were co-transfected with expression vectors encoding GFP-tagged HDAC5 (GFP-HDAC5) and constitutively active protein kinases as indicated, and then exposed to phorbol-12-myristate-13-acetate (PMA, […]) for 3 hours. […] A-F, The cells were fixed and the subcellular localization of GFP-HDAC5 was visualized by fluorescence microscopy.\nC, D, Cos7 cells were transfected with GFP-HDAC5-WT or GFP-HDAC5-S280D and then exposed to PMA for 3 hours. GFP-HDAC5-S280D but not GFP-HDAC5-WT was resistant to PMA-induced nuclear export. *, p<0.05 versus without PMA, n=4. E, F, Cos7 cells were transfected with Flag-HDAC5-WT or Flag-HDAC5-S280A mutant, and then pretreated with forskolin followed with the exposure to PMA. Phosphorylation of HDAC5 in cell lysates was analyzed by immunoblotting with phospho-specific HDAC5 antibodies that recognize the HDAC5 phosphorylated at Ser259 (E) and Ser498 (F). G, H, Cos7 cells were transfected with Flag-HDAC5-WT, Flag-HDAC5-S280A or Flag-HDAC5-S280D, and then pretreated with forskolin, followed with the exposure to PMA. Coimmunoprecipitation of Flag-HDAC5 in cell lysates and then immunoblotting with anti-14-3-3 beta and anti-Flag antibodies in immunoprecipitates were performed. 14-3-3 in total cell lysates (5% of the input) was determined by immunoblotting with anti-14-3-3 antibodies. Representative blots are shown, n=3.\nThe cells were fixed and GFP-HDAC5 localization was analyzed by fluorescence microscopy.\nFor analysis of GFP-HDAC5 subcellular localization in NRVMs and Cos7 cells, cells were plated in the presence of adenovirus (multiplicity of infection, 50 to 100) on 35 mm dishes containing DMEM plus 10% FBS as previously described (Vega R B, et al. (2004) Protein kinases C and D mediate agonist-dependent cardiac hypertrophy through nuclear export of histone deacetylase 5. Mol Cell Biol 24(19):8374-8385).\nAfter 24 hour culture, cells were maintained in serum-free DMEM medium for additional 24 hours, and then exposed to various inducers or inhibitors (for 30 minutes) prior to PE or PMA stimulation for indicated times. The cells were washed with PBS and fixed with 3.7% formaldehyde in PBS. Images were captured at a magnification of ×60, using a fluorescence microscope (Olympus BX51) equipped with a digital camera and Spot software system (RT Color Diagnostic Instruments). For analysis of the myocyte marker, sarcomeric α-actinin antibody and DAPI in neonatal cardiomyocyte, immunocytochemistry were performed according to a standard protocol. For subcellular localization of endogenous HDAC5 in cardiomyocyes, we fixed cells and used the detergent Saponin (Sigma, 84510) to make cells permeable, and then performed immunocytochemistry with anti-HDAC5 antibody (Santa Cruz, sc-11419). For subcellular localization of HDAC5, total around 200 cells were counted in each condition. For cardiomyocyte size, total myocyte surface areas were calculated using NIH Image J software, and expressed as the average of 100 randomly selected cells per condition."}, "[2]": {"test_system": "ANF, β-MHC, α-SMA expression", "assay": "RT-PCR of cardiac fetal gene expression in NRVMs", "type": "cell-based, rat", "conditions": "PE 24 hours", "procedure": "The mRNA was extracted from the cell lysates and then RT-PCR with the primers for ANF, β-MHC, α-SMA, and GADPH (internal control) was performed. *, p<0.05 versus PE+Ad-GFP; #, p<0.05 versus PE+GFP-HDAC5-WT, n=4.\nThe mRNA was extracted from the cell lysates, and quantitative RT-PCR with the primers for ANF and GADPH (internal control) were performed as described in the Examples. Quantitative data are shown (n=4).\nTotal RNA was isolated from NRVM using TRIzol (Invitrogen Corp.). Firststrand cDNA was synthesized with the SuperScript Preamplification System (Gibco-BRL). cDNA was amplified by PCR for 30 cycle (Applied Biosystem) as described previously (4, 5). Rat GAPDH served as an internal control. The following oligonucleotide primers were used in this study: rat ANF, sense 5′-[…]-3′ (SEQ ID NO:11) and antisense 5′-[…]-3′(SEQ ID NO:12) rat α-SMA, sense 5′-[…]-3′ (SEQ ID NO:13) and antisense 5′-[…]-3′ (SEQ ID NO:14); rat β-MHC (myosin heavy chain), sense 5′-[…]-3′ (SEQ ID NO:15) and antisense 5′-[…]-3′ (SEQ ID NO:16); rat GAPDH, sense 5′-[…]-3′ (SEQ ID NO:17) and antisense 5′-[…]-3′ (SEQ ID NO:18). Experiments were repeated three times."}},
  "data": [
    {"smiles": "CCCC(=O)Nc1ncnc2c1ncn2[C@@H]1O[C@@H]2COP(=O)(O)O[C@H]2[C@H]1OC(=O)CCC", "note": "[cAMP, Dibutyryl-cAMP]", "values": [
      {"measurement": "PMA-induced HDAC5 nuclear export", "setting": "[1]; GFP-HDAC5-WT, pretreatment, then PMA for 3 hours", "result": "totally blocked HDAC5 nuclear export"},
      {"measurement": "PMA-induced nuclear export of GFP-HDAC5-S280A", "setting": "[1]; S280A mutant, cAMP pretreatment, PMA 3 hours", "result": "inhibited nuclear export of GFP-HDAC5-WT but not GFP-HDAC5-S280A"},
      {"measurement": "PE-elevated expression of ANF, β-MHC and α-SMA", "setting": "[2]; NRVMs with GFP-HDAC5-WT, cAMP pretreatment", "result": "blocked this elevated gene expression"},
      {"measurement": "PE-induced ANF expression (quantitative RT-PCR)", "setting": "[2]; NRVMs, cAMP 30 min", "result": "decreases PE-induced ANF expression"}
    ]}
  ]
}
